Structures are written as SMILES.

Common to all, as to format: cell-based
Experiment [1] has as its system Enterococcus faecium and faecalis (RESISTANT). The note with it: geometric mean of 4-6 isolates. The method, then:
(§1) The antibacterial efficacy of the present compounds is illustrated by Table II. The minimal inhibitory concentrations (MICs) were determined using a standard broth micro-dilution assay.

Experiment [2] relates to Enterococcus faecium and faecalis (SENSITIVE). The note with it: geometric mean of 4-6 isolates. As to the method: as §1
For experiment [3], the system named is Staphylococcus aureus 446. The experiment can be described thus: MIC, standard broth micro-dilution assay, SA 446. As to the method:
as §1
(In broth dilution the organism is exposed to a series of concentrations in liquid medium.)

Experiment [4] has as its system Staphylococcus aureus 489. The experiment can be described thus: MIC, standard broth micro-dilution assay, SA 489. As to the method:
as §1

For experiment [5], the system named is Staphylococcus aureus 447. The experiment is described as follows: MIC, standard broth micro-dilution assay, SA 447. As to the method: as §1
Experiment [6] relates to Staphylococcus haemolyticus 105. The experiment can be described thus: MIC, standard broth micro-dilution assay, SH 105. As to the method:
as §1

The subject of experiment [7] is Staphylococcus haemolyticus 415. The experiment can be described thus: MIC, standard broth micro-dilution assay, SH 415. The method, then: as §1
The subject of experiment [8] is Staphylococcus epidermidis 270. The experiment is described as follows: MIC, standard broth micro-dilution assay, SE 270. The method, then:
as §1

Experiment [9] relates to Streptococcus pyogenes C203. The experiment is described as follows: MIC, standard broth micro-dilution assay, SPY C203. As to the method:
as §1

Experiment [10] has as its system Streptococcus pneumoniae P1. The experiment can be described thus: MIC, standard broth micro-dilution assay, SPN P1. As to the method: as §1

With `CC(C)C[C@H](C(=O)N[C@H]1C(=O)N[C@@H](CC(N)=O)C(=O)N[C@H]2C(=O)N[C@H]3C(=O)N[C@H](C(=O)N[C@H](C(=O)O)c4cc(O)cc(O)c4-c4cc3ccc4O)[C@H](O[C@H]3C[C@](C)(N)[C@@H](O)[C@H](C)O3)c3ccc(c(Cl)c3)Oc3cc2cc(c3O[C@@H]2O[C@H](CO)[C@@H](O)[C@H](O)[C@H]2O[C@H]2C[C@](C)(NCc3ccc(-c4ccccc4)cc3)[C@@H](O)[C@H](C)O2)Oc2ccc(cc2Cl)[C@H]1O)N(C)C(=S)Nc1ccccc1` [Example 4, N^LEU -(PHENYLTHIOCARBAMOYL)-N^DISACC -(p-PHENYLBENZYL)A82846B], in [1], the “Minimal Inhibitory Concentration (MIC) RESISTANT” value is 14. Also, in experiment [2], the “Minimal Inhibitory Concentration (MIC) SENSITIVE” value worked out at 4. Moreover, the “Minimal Inhibitory Concentration (MIC) SA 446” value in [3] is listed as 2. In experiment [4], the “Minimal Inhibitory Concentration (MIC) SA 489” value was determined as 0.125. Further, the “Minimal Inhibitory Concentration (MIC) SA 447” value in experiment [5] is 1. Further, the “Minimal Inhibitory Concentration (MIC) SH 105” value in experiment [6] is reported as 2. Further, the “Minimal Inhibitory Concentration (MIC) SH 415” value in experiment [7] was determined as 1. For the same compound, the “Minimal Inhibitory Concentration (MIC) SE 270” value in experiment [8] was 0.5. The “Minimal Inhibitory Concentration (MIC) SPY C203” value in experiment [9] was not above 0.06. The “Minimal Inhibitory Concentration (MIC) SPN P1” value in [10] amounted to 0.125.
For `CC(C)CC(C(=O)NC1C(=O)NC(CC(N)=O)C(=O)NC2C(=O)NC3C(=O)NC(C(=O)NC(C(=O)O)c4cc(O)cc(O)c4-c4cc3ccc4O)C(OC3CC(C)(N)C(O)C(C)O3)c3ccc(c(Cl)c3)Oc3cc2cc(c3OC2OC(CO)C(O)C(O)C2OC2CC(C)(N)C(O)C(C)O2)Oc2ccc(cc2Cl)C1O)N(C)C(=S)Nc1cccc2ccccc12` (stereo not drawn) [Example 5, N^LEU -(1-NAPHTHYLTHIOCARBAMOYL)A82846B], in experiment [1], the “Minimal Inhibitory Concentration (MIC) RESISTANT” value was more than 128. Further, in [2], the “Minimal Inhibitory Concentration (MIC) SENSITIVE” value is listed as 9.5. The “Minimal Inhibitory Concentration (MIC) SA 446” value in [3] is on record as 8. In addition, the “Minimal Inhibitory Concentration (MIC) SA 489” value in experiment [4] is recorded as more than 64. Moreover, the “Minimal Inhibitory Concentration (MIC) SA 447” value in experiment [5] was determined as 8. In experiment [6], the “Minimal Inhibitory Concentration (MIC) SH 105” value turned out to be 64. Further, the “Minimal Inhibitory Concentration (MIC) SH 415” value in experiment [7] is reported as more than 64. Further, the “Minimal Inhibitory Concentration (MIC) SE 270” value in [8] is given as 32. For the same compound, the “Minimal Inhibitory Concentration (MIC) SPY C203” value in experiment [9] is recorded as 0.5. In addition, the “Minimal Inhibitory Concentration (MIC) SPN P1” value in experiment [10] was determined as 1.
`CC(C)CC(C(=O)NC1C(=O)NC(CC(N)=O)C(=O)NC2C(=O)NC3C(=O)NC(C(=O)NC(C(=O)O)c4cc(O)cc(O)c4-c4cc3ccc4O)C(OC3CC(C)(N)C(O)C(C)O3)c3ccc(c(Cl)c3)Oc3cc2cc(c3OC2OC(CO)C(O)C(O)C2OC2CC(C)(NCc3ccc(Cl)cc3)C(O)C(C)O2)Oc2ccc(cc2Cl)C1O)N(C)C(=S)Nc1cccc2ccccc12` (stereo not drawn) [Example 6, N^LEU -(1-NAPHTHYLTHIOCARBAMOYL)-N^DISACC -(p-CHLOROBENZYL)A82846B]: in [1], the “Minimal Inhibitory Concentration (MIC) RESISTANT” value was 128. Moreover, in [2], the “Minimal Inhibitory Concentration (MIC) SENSITIVE” value came to 5. For the same compound, the “Minimal Inhibitory Concentration (MIC) SA 446” value in experiment [3] worked out at 2. In addition, the “Minimal Inhibitory Concentration (MIC) SA 489” value in [4] is recorded as 16. The “Minimal Inhibitory Concentration (MIC) SA 447” value in experiment [5] stood at 4. Besides, the “Minimal Inhibitory Concentration (MIC) SH 105” value in experiment [6] turned out to be 4. The “Minimal Inhibitory Concentration (MIC) SH 415” value in experiment [7] was determined as 8. Moreover, the “Minimal Inhibitory Concentration (MIC) SE 270” value in experiment [8] was 64. The “Minimal Inhibitory Concentration (MIC) SPY C203” value in experiment [9] was not above 0.06. In addition, the “Minimal Inhibitory Concentration (MIC) SPN P1” value in [10] is reported as not above 0.06.
In the case of `CC(C)CC(C(=O)NC1C(=O)NC(CC(N)=O)C(=O)NC2C(=O)NC3C(=O)NC(C(=O)NC(C(=O)O)c4cc(O)cc(O)c4-c4cc3ccc4O)C(OC3CC(C)(N)C(O)C(C)O3)c3ccc(c(Cl)c3)Oc3cc2cc(c3OC2OC(CO)C(O)C(O)C2OC2CC(C)(NCc3ccc(Oc4ccccc4)cc3)C(O)C(C)O2)Oc2ccc(cc2Cl)C1O)N(C)C(=S)Nc1cccc2ccccc12` (stereo not drawn) [Example 7, N^LEU -(1-NAPHTHYLTHIOCARBAMOYL)-N^DISACC -(p-PHENOXYBENZYL)A82846B], the “Minimal Inhibitory Concentration (MIC) RESISTANT” value in [1] was determined as 19. For the same compound, the “Minimal Inhibitory Concentration (MIC) SENSITIVE” value in experiment [2] turned out to be 3. For the same compound, the “Minimal Inhibitory Concentration (MIC) SA 446” value in experiment [3] was 4. The “Minimal Inhibitory Concentration (MIC) SA 489” value in experiment [4] was determined as 2. The “Minimal Inhibitory Concentration (MIC) SA 447” value in experiment [5] is 1. Further, the “Minimal Inhibitory Concentration (MIC) SH 105” value in experiment [6] turned out to be 4. In addition, in [7], the “Minimal Inhibitory Concentration (MIC) SH 415” value amounted to 2. In addition, the “Minimal Inhibitory Concentration (MIC) SE 270” value in experiment [8] is given as 0.5. Moreover, the “Minimal Inhibitory Concentration (MIC) SPY C203” value in experiment [9] was determined as 0.25. Also, the “Minimal Inhibitory Concentration (MIC) SPN P1” value in experiment [10] is reported as not above 0.06.
As for `CC(C)CC(C(=O)NC1C(=O)NC(CC(N)=O)C(=O)NC2C(=O)NC3C(=O)NC(C(=O)NC(C(=O)O)c4cc(O)cc(O)c4-c4cc3ccc4O)C(OC3CC(C)(N)C(O)C(C)O3)c3ccc(c(Cl)c3)Oc3cc2cc(c3OC2OC(CO)C(O)C(O)C2OC2CC(C)(NCc3ccc(Cl)cc3)C(O)C(C)O2)Oc2ccc(cc2Cl)C1O)N(C)C(=S)Nc1ccc(Cl)cc1` (stereo not drawn) [Example 12, N^LEU -((p-CHLOROPHENYL)-THIOCARBAMOYL)-N^DISACC -(p-CHLOROBENZYL)A82846B], in experiment [1], the “Minimal Inhibitory Concentration (MIC) RESISTANT” value is listed as 128. Moreover, the “Minimal Inhibitory Concentration (MIC) SENSITIVE” value in experiment [2] is 3.5. The “Minimal Inhibitory Concentration (MIC) SA 446” value in experiment [3] was 4. In addition, the “Minimal Inhibitory Concentration (MIC) SA 489” value in experiment [4] turned out to be 1. The “Minimal Inhibitory Concentration (MIC) SA 447” value in experiment [5] was determined as 1. Also, the “Minimal Inhibitory Concentration (MIC) SH 105” value in experiment [6] came out at 2. Further, the “Minimal Inhibitory Concentration (MIC) SH 415” value in experiment [7] turned out to be 4. The “Minimal Inhibitory Concentration (MIC) SE 270” value in experiment [8] is listed as 1. The “Minimal Inhibitory Concentration (MIC) SPY C203” value in experiment [9] was not above 0.06. Moreover, in experiment [10], the “Minimal Inhibitory Concentration (MIC) SPN P1” value is not above 0.06.
On to `COc1ccc(NC(=S)N(C)C(CC(C)C)C(=O)NC2C(=O)NC(CC(N)=O)C(=O)NC3C(=O)NC4C(=O)NC(C(=O)NC(C(=O)O)c5cc(O)cc(O)c5-c5cc4ccc5O)C(OC4CC(C)(N)C(O)C(C)O4)c4ccc(c(Cl)c4)Oc4cc3cc(c4OC3OC(CO)C(O)C(O)C3OC3CC(C)(NCc4ccc(Cl)cc4)C(O)C(C)O3)Oc3ccc(cc3Cl)C2O)cc1` (stereo not drawn) [Example 13, N^LEU -((p-METHOXYPHENYL)-THIOCARBAMOYL)-N^DISACC -(p-CHLOROBENZYL)A82846B], for which the “Minimal Inhibitory Concentration (MIC) RESISTANT” value in experiment [1] is given as more than 128. Moreover, the “Minimal Inhibitory Concentration (MIC) SENSITIVE” value in [2] amounted to 3.5. For the same compound, the “Minimal Inhibitory Concentration (MIC) SA 446” value in [3] is on record as 4. Besides, the “Minimal Inhibitory Concentration (MIC) SA 489” value in experiment [4] is 2. The “Minimal Inhibitory Concentration (MIC) SA 447” value in experiment [5] stood at 2. Also, in experiment [6], the “Minimal Inhibitory Concentration (MIC) SH 105” value is reported as 4. The “Minimal Inhibitory Concentration (MIC) SH 415” value in experiment [7] came to 8. In addition, the “Minimal Inhibitory Concentration (MIC) SE 270” value in experiment [8] turned out to be 2. The “Minimal Inhibitory Concentration (MIC) SPY C203” value in experiment [9] is on record as not above 0.06. The “Minimal Inhibitory Concentration (MIC) SPN P1” value in [10] was not above 0.06.

The values are drawn from patent publication US5919771A, “Urea and thiourea derivatives of glycopeptides” (Eli Lilly and Company, priority 1998, dated 1999).
